BindingDB's records for doi:10.1016/j.bmcl.2006.08.117 (Johnson & Johnson Pharmaceutical, 2006)

Target: Histamine H4 receptor (Homo sapiens, UniProt Q9H3N8)
Assay: Radioligand Binding Assay
Settings: pH 7.5; 25 °C
Experimental: The Ki values were calculated based on an experimentally determined appropriate Kd value according to Cheng and Prusoff.

Ki: 0.124 µM
Compound: CN1CCN(CCCOc2ccc(-c3nc4cc(Cl)ccc4[nH]3)cc2)CC1 [5-chloro-2-{4-[3-(4-methylpiperazin-1-yl)propoxy]phenyl}-1H-1,3-benzodiazole]
